Laboratory results taken from paper PMC6936879, “Inhibiting the copper efflux system in microbes as a novel approach for developing antibiotics” (PLoS ONE, 2019).

Assays:
E. coli (BL21) = test: Kirby-Bauer test (disc diffusion); format: cell-based; details: 2 mm radius discs, LB petri dishes, 37 °C overnight
[1] = format: physicochemical; details: chemical stability; peptides diluted to 150 mM solution in double-distilled water, incubated at 37 °C for 24 h; ESI-MS spectra before and after incubation
From the text: We hypothesized that peptides would penetrate into E. coli and bind to CusB, interfere with its physiological dimerization, and thereby induce non-physiological structural changes or inhibit physiological structural changes in the transporter in response to extended levels of Cu(I). Thus, E. coli will lose its ability to be protected by copper-mediated oxidative stress, resulting in the death of the bacteria. Unlike CusB, CueO has homologs in human cells (Superoxide dismutase, SOD), and the main role in this study is to affect the CusCFBA efflux system regardless to CueO function, all measurements were carried out with an active CueO. First, we verified whether all ten peptides were stable under physiological conditions via incubation at 37°C for 24 h by ESI-MS analysis (Figs B to D in S1 File). Peptides 2–10 were stable under these given conditions, whereas peptide 1 was unstable.
Validation of the peptides stability using ESI-MS
In order to confirm the stability of the peptides, them were diluted to 150 mM solution in double-distilled
water, then incubated at 37 °C for 24 hr.
S2 before the incubation (Figure S2A) and after the incubation (Figure S2B). All peptides besides pep1
Fig B: ESI-MS. ESI-MS spectra for pep1 and pep2, left panel presents the spectra after peptide
(1 picture or pasted object on this page, not shown here)

E. coli (BL21;DE3) [2] = test: E. coli viability assay (LIVE/DEAD fluorescence imaging); format: cell-based; details: peptide 125 μM; LIVE/DEAD staining, M9 medium, confocal imaging, cell counts with ImageJ; mean ± SE, n = 3
Procedure: E. coli (BL21;DE3) were dyed using the L7007 LIVE/DEAD Bacterial Viability kit (Molecular Probes, Eugene OR, USA); microbes were grown in M9 medium. Images were acquired on a Leica SP8 confocal microscope, running LASX acquisition software. The magnification consisted of a 63 X 1.4 NA objective. Microbes were counted using ImageJ software. Error calculations were based on three repetitions, with each experiment scanned at nine different tiles—all together, 27 repetitions.
Live/dead fluorescence cell imaging experiments were used to indicate bacterial viability when incubated with the peptides. This method also helped to determine whether the decrease in the growth rate described above resulted from deceleration in E. coli growth or its substantial death. E coli were grown to the late […] phase (according to the growth rate lines; Figs B to D in S1 File) in the presence of the peptides in poor medium (M9), which mostly resembles physiological conditions.[52–54] Glucose levels in the growth media were sufficient to prevent bacterial viability loss due to lack of nutrition, yet not too high to positively affect its viability. […] However, the effect of the peptides was not as substantial as the commercially available antibiotic kanamycin. […] 5 ± 4.3% and up to 45.3 ± 4.3% reduction at a concentration of 125 μM.
Fig 4 Effect of the test peptides on E. coli viability. […]

E. coli (BL21;DE3) [3] = test: E. coli growth rate experiment (O.D. 600 nm) under copper stress; format: cell-based; details: M9 medium, 37 °C, value after 14 h incubation, 5 μM Cu(II) chloride in assay (sentence does not say with or without Cu(II)), mean ± SE, n = 5
Procedure: E. coli (BL21;DE3) growth rates were evaluated in 96-well microplates: in 200 μl of a poor medium comprising M9 medium. Incubation was for 16 h at 37°C with Copper(II) chloride (Sigma-Aldrich, St. Louis, MO, USA) at a concentration of 5 μM. Absorbance at 600 nm was measured every 30 min after stirring for 5 s in a 96-well plate reader (SPL Life Sciences, Gyeonggi, Korea). The buffer background was auto-subtracted. Each experiment was repeated five times under identical conditions.
Next, E. coli were grown in M9 medium for 16 h, and their growth rate was evaluated in the absence and presence of Cu(II) in the medium. In each sample, a different peptide was introduced to the medium, with the kanamycin as a positive control. […] Growth rate values for all peptides at various concentrations after 14 h of incubation are presented in Fig 3 (the growth rate curves are presented in Figs E to F in S1 File).
Fig 3 Effect of test peptides on the E. coli growth rate. E. coli cultures were grown as described in Methods. The growth rate values after a 14 h incubation in the medium in the presence (gray lines) and absence (black lines) of Cu(II). Concentrations of the test peptides: A. 50 μM, B. 75 μM, C. 100 μM, and D. 125 μM. *p < 0.05, MEAN ± SE, n = 5, a comparison between the values in the presence and absence of Cu(II). #p < 0.05, MEAN ± SE, n = 5, in the presence of Cu(II) and comparing between values of a buffer and peptide. t-test was used for the statistic evaluation.

[4] = disc solution 50 µM in 0.85% NaCl
[5] = disc solution 75 µM in 0.85% NaCl
[6] = disc solution 100 µM in 0.85% NaCl
[7] = disc solution 125 µM in 0.85% NaCl

| Compound | r, radius of bacteria killing formed over petri dishes by peptide-solution discs (E. coli (BL21); [4]) | r, radius of bacteria killing formed over petri dishes by peptide-solution discs (E. coli (BL21); [5]) | r, radius of bacteria killing formed over petri dishes by peptide-solution discs (E. coli (BL21); [6]) | r, radius of bacteria killing formed over petri dishes by peptide-solution discs (E. coli (BL21); [7]) | stability under physiological conditions (ESI-MS) [1] | reduction of bacterial viability (E. coli (BL21;DE3) [2]) | decrease in O.D. (600 nm) (E. coli (BL21;DE3) [3]; peptide 50 μM) | decrease in O.D. (600 nm) (E. coli (BL21;DE3) [3]; peptide 100 μM) |
| --- | --- | --- | --- | --- | --- | --- | --- | --- |
| NC[C@H]1O[C@H](O[C@H]2[C@H](O)[C@@H](O[C@H]3O[C@H](CO)[C@@H](O)[C@H](N)[C@H]3O)[C@H](N)C[C@@H]2N)[C@H](O)[C@@H](O)[C@@H]1O [Kanamycin, kanamycin, reference compound] | 2.5 mm | 2.5 mm | 2.5 mm | 2.5 mm |  |  |  |  |
| AKIQGM [pep3] | 0 mm | 0 mm | 0 mm | 0 mm |  |  |  |  |
| AKIQGMDPVWVTA [pep1, 13-amino acid parent peptide […] mimicking CusB residues 236-248] |  |  |  |  | unstable |  |  |  |
| DPVWVTA [pep4] | 0 mm | 0 mm | 0 mm | 0 mm |  |  |  |  |
| GMDPVW [pep6] | 0 mm | 0 mm | 0 mm | 0 mm |  |  |  |  |
| IQGMD [pep5] | 0 mm | 0.5 mm | 1 mm | 2 mm |  | 45.3 ± 4.3% | 54.5 ± 4.2% | 77.2 ± 6.4% |
| KIQGMDPVWVT [pep2] | 0 mm | 0 mm | 0 mm | 0 mm |  |  |  |  |
| MDPV [pep9] | 0 mm | 0.5 mm | 0.5 mm | 1.5 mm |  |  |  |  |
| PVWV [pep10] | 0 mm | 0 mm | 0.5 mm | 1.5 mm |  |  |  |  |
| VWVTA [pep7] | 0 mm | 0 mm | 0 mm | 0 mm |  |  |  |  |
